# Tests used:
# [1] = Thermodynamic relationship between Form 1 and Form 2 calculated from DSC melting data (method of Lian Yu); format: physicochemical; settings: for transition temperature: Form 2 T=110.35° C., ΔH=83.43 J/g; for thermodynamic relationship between the polymorphs (monotropic or enantiotropic): based on DSC data
# Description: For a polymorphic substance, a property of particular interest is the relative thermodynamic stability of the polymorphs. The questions to be answered are the following:
# b) for an enantiotropic system, where (Tt) lies.
# The thermodynamic relationship between Form 1 and Form 2 of compound of Formula (I) was calculated using the melting data of polymorphs measured by DSC, according to what disclosed in: Lian Yu, Journal of Pharmaceutical Science, Vol. 84, No. 8, August 1995.
# Taking samples of Form 1 and Form 2 as pure forms 1 and 2 respectively, and using the melting point and the ΔH obtainable by DSC data, it was possible to calculate the thermodynamic relationship and the transition temperature.
# The above calculation has been performed using DSC data for a different sample of polymorph Form 1 of compound of Formula (I), showing the Differential Scanning Calorimetry (DSC) thermogram of FIG. 7, obtained by the same method discussed above.
# [2] = Slurry conversion of a mixture of the two polymorphs, solid examined by XRPD; format: physicochemical; settings: 20.4 mg Form 1 + 21.3 mg Form 2 in saturated ethyl acetate/heptane=1/2 solution of Form 1, stirred at RT one day
# Description: A saturated solution in ethyl acetate/heptane=½ of Form 1 of compound of Formula (I) (25 mg in 400 μL) was prepared.
# 20.4 mg of solid Form 1 of compound of Formula (I) were mixed with 21.3 mg of solid Form 2 of compound of Formula (I). That solid mixture was added to the above saturated solution. The slurry so obtained was stirred at RT one day long. The day after, the solid and liquid phase were separated by centrifugation, and the solid was simply left on air in order to dry and then examined by XPRD.
# [3] = Form 1 sample of FIG. 6 (T=102.44° C., ΔH=71.18 J/g)
# [4] = Form 1 sample of FIG. 7 (T=100.09° C., ΔH=75.46 J/g)
"transition temperature [1, 3] [°C]","transition temperature [1, 4] [°C]",thermodynamic relationship between the polymorphs (monotropic or enantiotropic) [1],solid form after slurrying a mixture of Form 1 and Form 2 [2],Compound
177,356,monotropic relationship,the solid was only constituted by Form 2,"CC[C@H](Nc1cc(C)nc2c(-c3ccc(OC)cc3C)c(C)nn12)c1nc(C)no1 [Form 2, [3-(4-methoxy-2-methyl-phenyl)-2,5-dimethyl-pyrazolo[1,5-a]pyrimidin-7-yl]-[(S)-1-(3-methyl-[1,2,4]oxadiazol-5-yl)-propyl]-amine]"
177,356,monotropic relationship,,"CC[C@H](Nc1cc(C)nc2c(-c3ccc(OC)cc3C)c(C)nn12)c1nc(C)no1 [Form 1, [3-(4-Methoxy-2-methyl-phenyl)-2,5-dimethyl-pyrazolo[1,5-a]pyrimidin-7-yl]-[(S)-1-(3-methyl-[1,2,4]oxadiazol-5-yl)-propyl]-amine]"
